Data: article PMC7464559, “Synthesis, Optimization, Antifungal Activity, Selectivity, and CYP51 Binding of New 2-Aryl-3-azolyl-1-indolyl-propan-2-ols” (Pharmaceuticals, 2020)
Values after ≈ are worked out from the molar mass of the structure shown.

How the values were obtained:
CK98003 (Candida krusei) = assay: Anti-Candida in vitro assay, CK98003; assay type: cell-based; conditions: Pichia kudriavzevii; Candida krusei CK98003, mean of triplicate; read-out: MIC (IC80) CK98003
Description: (§1) Test fungal strains were obtained from the American Type Culture Collection (ATCC) or were clinical isolates from the Laboratory of Parasitology and Medical Mycology, Centre Hospitalier Universitaire (CHU) of Nantes. The strains were maintained on Sabouraud agar slants and were subcultured 24 h before used. The activity of the target compounds 8a–g and 11a–m was determined by the method previously described. Briefly, molecules were diluted in RPMI 1640 medium supplemented with 0.165 M morpholinopropanesulphonic acid (Sigma-Aldrich, Saint-Quentin Fallavier, France), 2% glucose, and antibiotics. Candida suspensions were prepared in RPMI 1640 medium (Sigma-Aldrich, Saint-Quentin Fallavier, France) adjusted to give a final concentration of 10^3 cells/mL, and a 96-well microplate (Nunc, D. Dutscher, Brumath, France) was seeded with 100 µL. Each concentration of molecules (100 µL) to be tested was added (in triplicate) and plates were incubated at 37 °C for 24 h. The cellular viability was evaluated on the Fluorolite 1000 (Dynatech, France) with an excitation at 550 nm and an emission at 590 nm after a 4 h incubation with 10 µL of Alamar Blue®. […] MIC was expressed as the mean of the triplicate values. KTC and FLC were used as standards.

[1] = tested on: CA98002 (Candida albicans); assay: Anti-Candida in vitro assay, CA98002; assay type: cell-based; conditions: Candida albicans CA98002, mean of triplicate; read-out: MIC (IC80) CA98002
Description: as §1

[2] = tested on: CL98001 (Candida lusitaniae); assay: Anti-Candida in vitro assay, CL98001; assay type: cell-based; conditions: Clavispora lusitaniae; Candida lusitaniae CL98001, mean of triplicate; read-out: MIC (IC80) CL98001
Description: as §1

[3] = tested on: ATCC90018 Candida parapsilosis strain; assay: Anti-Candida in vitro assay, ATCC90018; assay type: cell-based; conditions: Lodderomyces parapsilosis; Candida parapsilosis ATCC90018, mean of triplicate; read-out: MIC (IC80) ATCC90018
Description: as §1

C. albicans CA98001 = assay: Anti-Candida in vitro assay (Alamar Blue), C. albicans CA98001; assay type: cell-based; conditions: for MIC: Candida albicans, CA98001, 24 h
Description: as §1

MRC5 toxicity assay = assay type: cell-based, human; conditions: human, MRC-5 human fetal lung fibroblast cells, MRC-5 cells, 96-h incubation, mean of triplicate; read-out: Cytotoxicity IC50 on MRC-5 cells
Description: The cytotoxicity of compounds was studied with human fibroblast (MRC5). Cells were grown in RPMI 1640 medium (Sigma-Aldrich, Saint-Quentin Fallavier, France) supplemented with 10% fetal bovin serum (Sigma–Aldrich). Drugs were tested at three concentrations (100, 10, and 1 µM) in triplicate. After a 96-h incubation time, cytotoxicity was measured on the Fluorolite 1000 (Dynatech, Guyancourt, France) after a 4-h incubation time with Uptiblue® (Interchim, Montluçon, France). Inhibitory concentration 50 is a mean of triplicate values. A toxicity index was determined as follow: IC50 against MRC5/Geometric mean of the MICs against Candida spp..

[4] = tested on: ATCC6258 Candida krusei strain; assay: Anti-Candida in vitro assay, ATCC6258; assay type: cell-based; conditions: Pichia kudriavzevii; Candida krusei ATCC6258, mean of triplicate; read-out: MIC (IC80) ATCC6258
Description: as §1

CK98002 (Candida krusei) = assay: Anti-Candida in vitro assay, CK98002; assay type: cell-based; conditions: Pichia kudriavzevii; Candida krusei CK98002, mean of triplicate; read-out: MIC (IC80) CK98002
Description: as §1

[5] = tested on: CA98005 (Candida albicans); assay: Anti-Candida in vitro assay, CA98005; assay type: cell-based; conditions: Candida albicans CA98005, mean of triplicate; read-out: MIC (IC80) CA98005
Description: as §1

[6] = tested on: ATCC2091 Candida albicans strain; assay: Anti-Candida in vitro assay, ATCC2091; assay type: cell-based; conditions: Candida albicans ATCC2091, mean of triplicate; read-out: MIC (IC80) ATCC2091
Description: as §1

[7] = MIC = IC80, 24 h at 37 °C, mean of triplicate

Row | Compound | MIC (CK98003 (Candida krusei)) [µg/mL] | melting point [°C] | MIC [1] [µg/mL] | MIC [2] [µg/mL] | MIC [3] [µg/mL] | MIC (C. albicans CA98001; [7]) [µg/mL] | IC50 at 96 h (MRC5 toxicity assay) [µM] | MIC [4] [µg/mL] | MIC (CK98002 (Candida krusei)) [µg/mL] | MIC [5] [µg/mL] | MIC [6] [µg/mL] | MIC (= IC80) C. albicans CA98001 (C. albicans CA98001; [7]) [µg/mL] | Times more active than FLC against C. albicans CA98001 (C. albicans CA98001; ratio of MIC values versus FLC)
1 | Cc1cn(CC(O)(Cn2cncn2)c2ccc(Cl)cc2Cl)c2ccccc12 (stereo not drawn) [Compound 11i, 2-(2,4-Dichlorophenyl)-3-(3-methyl-1H-indol-1-yl)-1-(1H-1,2,4-triazol-1-yl)propan-2-ol] | 1.69 (≈ 4.2 µM) | 161 to 162 | 0.044 (≈ 0.11 µM) | 0.025 (≈ 0.0623 µM) | 0.245 (≈ 0.611 µM) | 0.007 (≈ 0.0174 µM) | 19 | 3.01 (≈ 7.5 µM) | 0.803 (≈ 2 µM) | 0.03 (≈ 0.0748 µM) | 0.026 (≈ 0.0648 µM) |  | 
2 | OC(Cn1nccn1)(Cn1ccc2ccccc21)c1ccc(Cl)cc1Cl (stereo not drawn) [Compound 11m, 2-(2,4-Dichlorophenyl)-3-(1H-indol-1-yl)-1-(2H-1,2,3-triazol-2-yl)propan-2-ol] |  | 159 to 161 |  |  |  | > 100 |  |  |  |  |  |  | 
3 | Cc1c(C)n(CC(O)(Cn2cncn2)c2ccc(F)cc2F)c2ccccc12 (stereo not drawn) [Compound 11j, 2-(2,4-Difluorophenyl)-3-(2,3-dimethyl-1H-indol-1-yl)-1-(1H-1,2,4-triazol-1-yl)propan-2-ol] | 13.9 (≈ 36.4 µM) | 102 to 103 | 0.382 (≈ 0.999 µM) | 0.256 (≈ 0.669 µM) | 4.01 (≈ 10.5 µM) | 0.157 (≈ 0.411 µM) | 25 | 18 (≈ 47 µM) | 11.5 (≈ 30 µM) | 2.41 (≈ 6.3 µM) | 0.256 (≈ 0.669 µM) |  | 
4 | OC(Cn1cncn1)(Cn1ccc2ccccc21)c1ccc(C(F)(F)F)cc1 (stereo not drawn) [Compound 8f, 1-(1H-Indol-1-yl)-3-(1,2,4-1H-triazol-1-yl)-2-(4-trifluoromethyl-phenyl)propan-2-ol] | 3.07 (≈ 7.94 µM) | 165 to 168 | 0.233 (≈ 0.603 µM) | 0.199 (≈ 0.515 µM) | 2 (≈ 5.18 µM) | 0.009 (≈ 0.0233 µM) | 76 | 19.1 (≈ 49.4 µM) | 10.6 (≈ 27.3 µM) | 0.749 (≈ 1.94 µM) | 0.247 (≈ 0.639 µM) |  | 
5 | OC(Cn1cncn1)(Cn1ccc2ccccc21)c1ccc(Cl)cc1 (stereo not drawn) [Compound 11b, 2-(4-Chlorophenyl)-3-(1H-indol-1-yl)-1-(1H-1,2,4-triazol-1-yl)propan-2-ol] | 2.43 (≈ 6.9 µM) | 188 to 189 | 0.261 (≈ 0.74 µM) | 0.208 (≈ 0.59 µM) | 2.05 (≈ 5.8 µM) | 0.024 (≈ 0.068 µM) | > 100 | 2.43 (≈ 6.9 µM) | 12.7 (≈ 35.9 µM) | 0.222 (≈ 0.629 µM) | 0.258 (≈ 0.731 µM) |  | 
6 | OC(Cn1cncn1)(Cn1ccc2ccccc21)c1ccc(F)cc1 (stereo not drawn) [Compound 11a, 2-(4-Fluorophenyl)-3-(1H-indol-1-yl)-1-(1H-1,2,4-triazol-1-yl)propan-2-ol] | 18.7 (≈ 55.5 µM) | 190 to 191 | 0.404 (≈ 1.2 µM) | 0.259 (≈ 0.77 µM) | 2.52 (≈ 7.5 µM) | 0.21 (≈ 0.624 µM) | > 100 | 19.2 (≈ 57.2 µM) | 21.4 (≈ 63.7 µM) | 0.437 (≈ 1.3 µM) | 0.437 (≈ 1.3 µM) | 0.21 (≈ 0.624 µM) | 
7 | OC(Cn1ccnc1)(Cn1ccc2ccccc21)c1ccc(F)cc1F (stereo not drawn) [Compound 8d, 2-(2,4-Difluorophenyl)-1-(1H-imidazol-1-yl)-3-(1H-indol-1-yl)propan-2-ol] | 5.21 (≈ 14.7 µM) | 166 to 168 | 0.609 (≈ 1.72 µM) | 0.068 (≈ 0.192 µM) | 0.614 (≈ 1.74 µM) | 0.00035 (≈ 0.00099 µM) | 34 | 3.86 (≈ 10.9 µM) | 5.69 (≈ 16.1 µM) | 0.439 (≈ 1.24 µM) | 0.726 (≈ 2.05 µM) |  | 57
8 | OC(Cn1ccnn1)(Cn1ccc2ccccc21)c1ccc(Cl)cc1Cl (stereo not drawn) [Compound 11l, 2-(2,4-Dichlorophenyl)-3-(1H-indol-1-yl)-1-(1H-1,2,3-triazol-1-yl)propan-2-ol] |  | 210 to 211 |  |  |  | > 100 |  |  |  |  |  |  | 
